This passage reports k obs / 1 results from ChEMBL document CHEMBL1131830, “Total synthesis of the potent proteasome inhibitor epoxomicin: a useful tool for understanding proteasome biology” (Bioorg Med Chem Lett, 1999).

The subject of this experiment is Proteasome. Nature of the experiment: Inhibitory activity against 20S proteosome. Format: subcellular.

`CC[C@@H](C)[C@H](NC(=O)[C@H]([C@@H](C)CC)N(C)C(C)=O)C(=O)N[C@H](C(=O)N[C@@H](CC(C)C)C(=O)[C@@]1(C)CO1)[C@@H](C)O`: the k obs / 1 is 246 M⁻¹ s⁻¹.

In the case of `CC[C@H](C)[C@H](NC(=O)[C@H]([C@@H](C)CC)N(C)C(C)=O)C(=O)N[C@H](C(=O)N[C@@H](CC(C)C)C(=O)[C@@]1(C)CO1)[C@@H](C)O`, the k obs / 1 was found to be 37200 M⁻¹ s⁻¹.
